From patent US20240381872A1, “SUBSTITUTED 2,3-DIHYDRO[1,3]THIAZOLO[4,5-B]PYRIDINES, SALTS THEREOF AND THEIR USE AS HERBICIDALLY ACTIVE SUBSTANCES” (BAYER AKTIENGESELLSCHAFT, priority 2021, published 2024)

Test system: Digitaria sanguinalis (DIGSA)
Assay: Herbicidal post-emergence action, section E (Table E4)
Type: in vivo
Conditions: application rate 80 g/ha; assessed visually ca. 3 weeks after treatment vs untreated controls; 100% = plants have died off, 0% = as control plants
Text: Seeds of mono- and dicotyledonous weed plants and crop plants were sown, in plastic or organic planting pots, in sandy loam, covered with soil and grown in a greenhouse under controlled growth conditions. 2 to 3 weeks after sowing, the test plants were sprayed in the single-leaf stage. The compounds according to the invention, formulated in form of wettable powders (WP) or as emulsifiable concentrates (EC), were sprayed onto the green plant parts as aqueous suspension or emulsion, with the addition of 0.5% of an additive, at an application rate of 600 l of water/ha (converted). The test plants were placed in the greenhouse for ca. 3 weeks under optimum growth conditions, and then the effect of the preparations was assessed visually in comparison with untreated controls (herbicidal effect in percent (%): 100% effect=plants have died off, 0% effect=as control plants).

Cc1cc2c(nc1-c1ccccc1F)NCS2 [Example I-007, 5-(2-fluorophenyl)-6-methyl-2,3-dihydro[1,3]thiazolo[4,5-b]pyridine]
post-emergence activity against DIGSA: 90%
